Measurements as given in ChEMBL document CHEMBL3822420, “New peptide deformylase inhibitors design, synthesis and pharmacokinetic assessment” (Bioorg Med Chem Lett, 2016).
Converted amounts (≈) assume the structure as drawn.

Experiments:
[1] = tested on: Staphylococcus epidermidis; experiment: Antibacterial activity against methicillin-resistant Staphylococcus epidermidis 14-2; format: functional
Staphylococcus aureus [2] = experiment: Antibacterial activity against methicillin-resistant Staphylococcus aureus 14-5; format: functional
Escherichia coli [3] = experiment: Antibacterial activity against Escherichia coli 14-2; format: functional
Staphylococcus aureus [4] = experiment: Antibacterial activity against methicillin-sensitive Staphylococcus aureus 14-3; format: functional
[5] = tested on: Staphylococcus epidermidis; experiment: Antibacterial activity against methicillin-resistant Staphylococcus epidermidis 14-4; format: functional
[6] = tested on: Staphylococcus epidermidis; experiment: Antibacterial activity against methicillin-sensitive Staphylococcus epidermidis 14-3; format: functional
Enterococcus faecalis [7] = experiment: Antibacterial activity against Enterococcus faecalis 14-2; format: functional
[8] = tested on: Staphylococcus epidermidis; experiment: Antibacterial activity against methicillin-resistant Staphylococcus epidermidis 14-1; format: functional
Staphylococcus aureus [9] = experiment: Antibacterial activity against methicillin-sensitive Staphylococcus aureus 14-2; format: functional
Escherichia coli [10] = experiment: Antibacterial activity against Escherichia coli 14-1; format: functional
Escherichia coli [11] = experiment: Antibacterial activity against Escherichia coli 14-1 expressing extended-spectrum beta-lactamase; format: functional
Enterococcus faecalis [12] = experiment: Antibacterial activity against Enterococcus faecalis 14-5; format: functional
Escherichia coli [13] = experiment: Antibacterial activity against Escherichia coli 14-2 expressing extended-spectrum beta-lactamase; format: functional
[14] = tested on: Staphylococcus epidermidis; experiment: Antibacterial activity against methicillin-sensitive Staphylococcus epidermidis 14-2; format: functional
Enterococcus faecalis [15] = experiment: Antibacterial activity against Enterococcus faecalis 14-3; format: functional
Staphylococcus aureus [16] = experiment: Antibacterial activity against methicillin-sensitive Staphylococcus aureus 14-1; format: functional
[17] = tested on: Staphylococcus epidermidis; experiment: Antibacterial activity against methicillin-resistant Staphylococcus epidermidis 14-3; format: functional
Enterococcus faecalis [18] = experiment: Antibacterial activity against Enterococcus faecalis 14-1; format: functional
Staphylococcus aureus [19] = experiment: Antibacterial activity against methicillin-resistant Staphylococcus aureus 14-1; format: functional
Staphylococcus aureus [20] = experiment: Antibacterial activity against methicillin-sensitive Staphylococcus aureus 14-4; format: functional
Staphylococcus aureus [21] = experiment: Antibacterial activity against methicillin-resistant Staphylococcus aureus 14-4; format: functional
[22] = tested on: Staphylococcus epidermidis; experiment: Antibacterial activity against methicillin-sensitive Staphylococcus epidermidis 14-1; format: functional
Staphylococcus aureus [23] = experiment: Antibacterial activity against methicillin-resistant Staphylococcus aureus 14-2; format: functional
[24] = Oral bioavailability in Sprague-Dawley rat at 10 mg/kg; format: ADME, organism-based; conditions: in vivo
[25] = AUC (0 to t) in Sprague-Dawley rat at 2 mg/kg, iv; format: ADME, organism-based; conditions: Sprague-Dawley, in vivo
[26] = AUC (0 to t) in Sprague-Dawley rat at 10 mg/kg, po; format: ADME, organism-based; conditions: in vivo
[27] = Tmax in Sprague-Dawley rat at 10 mg/kg, po; format: ADME, organism-based; conditions: in vivo
[28] = Clearance in Sprague-Dawley rat at 10 mg/kg, po; format: ADME, organism-based; conditions: Sprague-Dawley, in vivo
[29] = MRT (0 to t) in Sprague-Dawley rat at 10 mg/kg, po; format: ADME, organism-based; conditions: in vivo
[30] = AUC (0 to infinity) in Sprague-Dawley rat at 2 mg/kg, iv; format: ADME, organism-based; design: dose 2 mg/kg, route intravenous, time infinity; conditions: Sprague-Dawley, in vivo
[31] = Half life in Sprague-Dawley rat at 2 mg/kg, iv; format: ADME, organism-based; conditions: in vivo
Rattus norvegicus = experiment: Volume of distribution at steady state in Sprague-Dawley rat at 10 mg/kg, po; format: ADME, organism-based; conditions: in vivo
[32] = AUC (0 to infinity) in Sprague-Dawley rat at 10 mg/kg, po; format: ADME, organism-based; design: dose 10 mg/kg, time infinity, route oral; conditions: Sprague-Dawley, in vivo
[33] = Volume of distribution at steady state in Sprague-Dawley rat at 2 mg/kg, iv; format: ADME, organism-based; conditions: in vivo, read-out: Vdss
[34] = MRT (0 to t) in Sprague-Dawley rat at 2 mg/kg, iv; format: ADME, organism-based; conditions: in vivo
[35] = Cmax in Sprague-Dawley rat at 2 mg/kg, iv; format: ADME, organism-based; design: dose 2 mg/kg, route intravenous; conditions: in vivo
[36] = Cmax in Sprague-Dawley rat at 10 mg/kg, po; format: ADME, organism-based; design: dose 10 mg/kg, route oral; conditions: in vivo
[37] = Clearance in Sprague-Dawley rat at 2 mg/kg, iv; format: ADME, organism-based; conditions: in vivo
[38] = Tmax in Sprague-Dawley rat at 2 mg/kg, iv; format: ADME, organism-based; conditions: in vivo
[39] = Half life in Sprague-Dawley rat at 10 mg/kg, po; format: ADME, organism-based; conditions: Sprague-Dawley, in vivo

Row | SMILES | MIC [1] | MIC (Staphylococcus aureus [2]) | MIC (Escherichia coli [3]) | MIC (Staphylococcus aureus [4]) | MIC [5] | MIC [6] | MIC (Enterococcus faecalis [7]) | MIC [8] | MIC (Staphylococcus aureus [9]) | MIC (Escherichia coli [10]) | MIC (Escherichia coli [11]) | MIC (Enterococcus faecalis [12]) | MIC (Escherichia coli [13]) | MIC [14] | MIC (Enterococcus faecalis [15]) | MIC (Staphylococcus aureus [16]) | MIC [17] | MIC (Enterococcus faecalis [18]) | MIC (Staphylococcus aureus [19]) | MIC (Staphylococcus aureus [20]) | further results
1 | CCCC[C@H](CN(O)C=O)C(=O)N1CC2(CC2)C[C@H]1C(=O)Nc1cc[nH]n1 | 8 µg/mL (≈ 21.2 µM) | 8 µg/mL (≈ 21.2 µM) | > 128 µg/mL | 16 µg/mL (≈ 42.4 µM) | 8 µg/mL (≈ 21.2 µM) | 4 µg/mL (≈ 10.6 µM) | 64 µg/mL (≈ 170 µM) | 8 µg/mL (≈ 21.2 µM) | 16 µg/mL (≈ 42.4 µM) | > 128 µg/mL | 16 µg/mL (≈ 42.4 µM) | > 128 µg/mL | 128 µg/mL (≈ 339 µM) | 16 µg/mL (≈ 42.4 µM) | 64 µg/mL (≈ 170 µM) | 16 µg/mL (≈ 42.4 µM) | 4 µg/mL (≈ 10.6 µM) | 64 µg/mL (≈ 170 µM) | 16 µg/mL (≈ 42.4 µM) | 16 µg/mL (≈ 42.4 µM) | MIC (Staphylococcus aureus [21]): 16 µg/mL (≈ 42.4 µM); MIC [22]: 4 µg/mL (≈ 10.6 µM); MIC (Staphylococcus aureus [23]): 32 µg/mL (≈ 84.8 µM)
2 | CCCC[C@H](CN(O)C=O)C(=O)N1CC2(CC2)C[C@H]1C(=O)Nc1ccc(F)c[n+]1[O-] | 0.06 µg/mL (≈ 0.142 µM) | 0.125 µg/mL (≈ 0.296 µM) | 64 µg/mL (≈ 151 µM) | 0.125 µg/mL (≈ 0.296 µM) | 0.125 µg/mL (≈ 0.296 µM) | 0.03 µg/mL (≈ 0.071 µM) | 0.5 µg/mL (≈ 1.18 µM) | 0.03 µg/mL (≈ 0.071 µM) | 0.125 µg/mL (≈ 0.296 µM) | 128 µg/mL (≈ 303 µM) | 1 µg/mL (≈ 2.37 µM) | 128 µg/mL (≈ 303 µM) | 64 µg/mL (≈ 151 µM) | 0.125 µg/mL (≈ 0.296 µM) | 0.5 µg/mL (≈ 1.18 µM) | 0.125 µg/mL (≈ 0.296 µM) | 0.03 µg/mL (≈ 0.071 µM) | 0.25 µg/mL (≈ 0.592 µM) | 0.25 µg/mL (≈ 0.592 µM) | 0.125 µg/mL (≈ 0.296 µM) | bioavailability [24]: 31%; AUC(0-t) [25]: 1260 ng·h/mL; AUC(0-t) [26]: 1960 ng·h/mL; Tmax [27]: 15 min; CL/F [28]: 91.3 mL/min/kg; MRT last [29]: 2.04 h; AUC(0-inf) [30]: 1280 ng·h/mL; half-life [31]: 218 min; Vdss (Rattus norvegicus): 39.4 L/kg; AUC(0-inf) [32]: 1990 ng·h/mL; Vd [33]: 2.6 L/kg; MRT last [34]: 1.65 h; Cmax [35]: 1780 ng/mL; MIC (Staphylococcus aureus [21]): 0.125 µg/mL (≈ 0.296 µM); Cmax [36]: 1850 ng/mL; MIC [22]: 0.03 µg/mL (≈ 0.071 µM); clearance [37]: 26.2 mL/min/kg; Tmax [38]: 8.4 min; half-life [39]: 296 min; MIC (Staphylococcus aureus [23]): 0.25 µg/mL (≈ 0.592 µM)
3 | CCCC[C@H](CN(O)C=O)C(=O)N1CC2(CC2)C[C@H]1C(=O)Nc1cc(C(C)(C)C)on1 | 0.03 µg/mL (≈ 0.069 µM) | 0.06 µg/mL (≈ 0.138 µM) | 64 µg/mL (≈ 147 µM) | 0.25 µg/mL (≈ 0.575 µM) | 0.03 µg/mL (≈ 0.069 µM) | 0.015 µg/mL (≈ 0.0345 µM) | 0.5 µg/mL (≈ 1.15 µM) | 0.03 µg/mL (≈ 0.069 µM) | 0.125 µg/mL (≈ 0.288 µM) | 64 µg/mL (≈ 147 µM) | 1 µg/mL (≈ 2.3 µM) | > 128 µg/mL | 64 µg/mL (≈ 147 µM) | 0.125 µg/mL (≈ 0.288 µM) | 0.5 µg/mL (≈ 1.15 µM) | 0.125 µg/mL (≈ 0.288 µM) | 0.015 µg/mL (≈ 0.0345 µM) | 0.5 µg/mL (≈ 1.15 µM) | 0.06 µg/mL (≈ 0.138 µM) | 0.06 µg/mL (≈ 0.138 µM) | bioavailability [24]: 35%; AUC(0-t) [25]: 1140 ng·h/mL; AUC(0-t) [26]: 1950 ng·h/mL; Tmax [27]: 34.8 min; CL/F [28]: 90.6 mL/min/kg; MRT last [29]: 3.43 h; AUC(0-inf) [30]: 1140 ng·h/mL; half-life [31]: 73.8 min; Vdss (Rattus norvegicus): 36.2 L/kg; AUC(0-inf) [32]: 1980 ng·h/mL; Vd [33]: 2.7 L/kg; MRT last [34]: 1.5 h; Cmax [35]: 930 ng/mL; MIC (Staphylococcus aureus [21]): < 0.008 µg/mL; Cmax [36]: 860 ng/mL; MIC [22]: 0.03 µg/mL (≈ 0.069 µM); clearance [37]: 29.6 mL/min/kg; Tmax [38]: 4.8 min; half-life [39]: 271 min; MIC (Staphylococcus aureus [23]): 0.06 µg/mL (≈ 0.138 µM)
